The results in this text go back to US5990295A (priority 1998, dated 1999).

This test deals with ω-conotoxin GVIA binding site on brain membrane preparations. Further details: species or system frogs, chicks and rats.

As to ω-conotoxin GVIA, the “displacement of 125I-GVIA” value is given as “approximately 90%” and the “displacement of 125I-GVIA label” value was “approximately 98%”.
